In ChEMBL document CHEMBL3232918, “Core modification of substituted piperidines as novel inhibitors of HDM2-p53 protein-protein interaction” (Bioorg Med Chem Lett, 2014):

Legend:
[1] = test system: SJSA-1; assay: Antiproliferative activity against human SJSA1 cells
[2] = Permeability of the compound in human Caco2 cells; assay type: ADME, cell-based; conditions: Caco-2, read-out: permeability
[3] = AUC in mouse at 20 mg/kg, iv and 20 mg/kg, po; assay type: ADME, organism-based; conditions: plasma
[4] = Oral bioavailability in mouse at 20 mg/kg; assay type: ADME, organism-based; conditions: in vivo
[5] = target: E3 ubiquitin-protein ligase Mdm2 (Homo sapiens, UniProt Q00987); assay: Binding affinity to HDM2 (unknown origin) by fluorescence polarization peptide displacement assay
E3 ubiquitin-protein ligase Mdm2, sequence (Q00987 whole entry): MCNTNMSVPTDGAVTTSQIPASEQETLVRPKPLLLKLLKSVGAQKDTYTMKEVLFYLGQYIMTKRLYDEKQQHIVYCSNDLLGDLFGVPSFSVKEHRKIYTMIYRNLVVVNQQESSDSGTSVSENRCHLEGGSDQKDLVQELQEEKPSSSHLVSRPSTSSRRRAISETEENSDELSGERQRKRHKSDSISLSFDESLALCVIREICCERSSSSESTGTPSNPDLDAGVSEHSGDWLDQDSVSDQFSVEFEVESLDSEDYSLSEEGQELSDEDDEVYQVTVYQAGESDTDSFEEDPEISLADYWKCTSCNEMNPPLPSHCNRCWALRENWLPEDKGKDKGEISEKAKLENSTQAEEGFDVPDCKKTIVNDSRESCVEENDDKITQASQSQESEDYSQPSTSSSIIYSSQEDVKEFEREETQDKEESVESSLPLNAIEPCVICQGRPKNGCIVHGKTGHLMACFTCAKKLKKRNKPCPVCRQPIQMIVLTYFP

IC50 [5] | Compound | IC50 [1] | Papp [2] | AUC [3] | bioavailability [4]
– | C=CC[C@H]1N(C(=O)c2cnccc2C(F)(F)F)CCC[C@@]1(Oc1ccc(C(F)(F)F)cc1)C(=O)N1CCN(c2ccccc2OCCOC)CC1 | 1 µM | – | – | –
– | COCCOc1ccccc1N1CCN(C(=O)[C@]2(Oc3ccc(C(F)(F)F)cc3)CCCN(C(=O)c3cnccc3C(F)(F)F)C2)CC1 | 4.7 µM | 20.3 ×10⁻⁶ cm/s | 1.1 µM·h | 32%
– | COc1ccc(C2=N[C@@H](c3ccc(Cl)cc3)[C@@H](c3ccc(Cl)cc3)N2C(=O)N2CCNC(=O)C2)c(OC(C)C)c1 [NUTLIN-3] | 1.9 µM | 12.6 ×10⁻⁶ cm/s | – | –
– | COc1ccccc1N1CCN(C(=O)[C@]2(Oc3ccc(C(F)(F)F)cc3)CCCN(C(=O)c3cnccc3C(F)(F)F)C2)CC1 | 5.5 µM | 15.8 ×10⁻⁶ cm/s | 1.9 µM·h | 19%
> 10 µM | COCCOc1ccccc1N1CCN(C(=O)[C@]2(Oc3ccc(C(F)(F)F)cc3)CC[C@H](c3ccccc3)N(C(=O)c3cnccc3C(F)(F)F)C2)CC1 | – | – | – | –
